This passage reports inhibition and Ki results from US20050009840A1 (SUGEN, INC., priority 2003, published 2005).

One may read the inhibition as the drop in the measured response relative to a control, in per cent. By Ki is commonly meant the dissociation constant of the complex between target and ligand, obtained from inhibition or displacement.

The test concerns the target T1, HGFR (Homo sapiens, UniProt P08581).
T1 construct: purchased Upstate 14-526
The experiment in a line: HGFR continuous-coupled spectrophotometric assay. In kind it is biochemical. Particulars: for inhibition at 1 pM / inhibition at 1 µM: read-out: % Inhibition (percent c-MET inhibition); for inhibition at 0.05 µM: at 50 nM, Table 5, library procedure 40, read-out: % inhibition (percent c-MET inhibition); for inhibition at 1 µM: Table 8, library procedure 43.

[1] abbreviates: cells prefixed Ki, read-out: Met Ki.
Where [2] appears, read: Table 3, column 'Ki (μM) or I (%)': cells without % sign, read-out: Ki.

Where two headings read alike, the source gives them in different places.

T1 sequence (P08581 974-1390 limits assumed): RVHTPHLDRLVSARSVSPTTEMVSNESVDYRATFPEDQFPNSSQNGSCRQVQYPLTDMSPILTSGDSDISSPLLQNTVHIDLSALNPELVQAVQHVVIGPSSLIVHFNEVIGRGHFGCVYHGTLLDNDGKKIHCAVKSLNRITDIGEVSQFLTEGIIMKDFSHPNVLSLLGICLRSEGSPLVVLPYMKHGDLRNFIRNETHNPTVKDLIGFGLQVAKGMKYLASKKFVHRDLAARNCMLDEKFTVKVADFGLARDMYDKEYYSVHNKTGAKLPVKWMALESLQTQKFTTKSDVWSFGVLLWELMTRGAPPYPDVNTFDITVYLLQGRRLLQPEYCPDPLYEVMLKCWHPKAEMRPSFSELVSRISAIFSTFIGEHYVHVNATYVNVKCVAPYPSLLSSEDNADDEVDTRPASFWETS

For the molecule `Nc1ncc(-c2ccc(C(=O)N3CCC(N4CCCC4)CC3)cc2)cc1OCc1cccc(C(=O)NCc2cccnc2)c1`, the inhibition at 1 pM (Table 7, library procedure 42) came to 14%.
On to `Nc1ncc(C(=O)N2CCN(c3ccc(Br)cn3)CC2)cc1OCc1c(Cl)cccc1Cl` [Example L-267], for which, for the setting “Table 6, library procedure 41”, the inhibition at 1 pM turned out to be 5%.
`CC(Oc1cc(-c2ccc(OCC(=O)N3CCN(C(=O)OC(C)(C)C)CC3)cc2)cnc1N)c1c(Cl)ccc(F)c1Cl` (stereo not shown) [Example I-479, 4-[2-(4-{6-Amino-5-[1-(2,6-dichloro-3-fluoro-phenyl)-ethoxy]-pyridin-3-yl}-phenoxy)-acetyl]-piperazine-1-carboxylic acid tert-butyl ester]: the Ki under setting [1] was found to be 0.16 µM.
Turning to `Nc1ncc(C(=O)N2CCn3c(CO)nnc3C2)cc1OCc1c(Cl)cccc1Cl` [Example L-346], the inhibition at 1 pM (Table 6, library procedure 41) was 31%.
The same measure, in the same setting: the value for `Nc1ncc(C(=O)NCCN2CCOCC2)cc1OCc1c(Cl)cccc1Cl` [Example L-181] was 31%.
On to `C[C@H](Oc1cc(-c2ccc(C(=O)N[C@@H](C)C3CCCCC3)cc2)cnc1N)c1c(Cl)ccc(F)c1Cl` [Example L-80], for which the inhibition at 0.05 µM worked out at 60%.
As for `CC1CN(C(=O)c2ccc(-c3cnc(N)c(OCc4ccc(C(=O)NC5CCN(Cc6ccccc6)C5)cc4)c3)cc2)CC(C)N1` (stereo not shown), the inhibition at 1 µM turned out to be 19%.
Regarding `Cc1cc(COc2cc(-c3ccc(C(=O)N4CCC(N5CCCC5)CC4)cc3)cnc2N)ccc1F`, the inhibition at 1 pM (Table 7, library procedure 42) was found to be 27%.
Turning to `CC(C)Oc1c(F)cccc1COc1cc(-c2ccc(C(=O)N3C[C@@H](C)N[C@@H](C)C3)cc2)cnc1N` [Example I-473, {4-[6-Amino-5-(3-fluoro-2-isopropoxy-benzyloxy)-pyridin-3-yl]-phenyl}-((3R,5S)-3,5-dimethyl-piperazin-1-yl)-methanone], the Ki under setting [1] amounted to 12.7 µM.
Consider `Nc1ncc(C(=O)N[C@@H]2CCCC[C@H]2CO)cc1OCc1c(Cl)cccc1Cl` [Example L-229], for which the inhibition at 1 pM (Table 6, library procedure 41) worked out at 24%.
As for `Nc1ncc(-c2ccc(C(=O)N3CCC(N4CCCC4)CC3)cc2)cc1OCc1c(F)ccc(F)c1F`, the inhibition at 1 pM (Table 7, library procedure 42) came out at 30%.
Take `CC1CN(C(=O)c2ccc(-c3cnc(N)c(OCc4nc5ccccc5n4C)c3)cc2)CC(C)N1` (stereo not shown): the inhibition at 1 µM amounted to 16%.
For the molecule `CC1CN(C(=O)c2ccc(-c3cnc(N)c(OCc4ccc(-c5ccnc(Br)n5)cc4)c3)cc2)CC(C)N1` (stereo not shown), the inhibition at 1 µM amounted to 17%.
For `Nc1ncc(C(=O)NCCCN2CCOCC2)cc1OCc1c(Cl)cccc1Cl` [Example L-177], under “Table 6, library procedure 41”, the inhibition at 1 pM worked out at 26%.
Turning to `Nc1ncc(-c2ccc(C(=O)N3CCC(N4CCCC4)CC3)cc2)cc1OCc1nc(-c2ccc(C(=O)N3CCCC3)cc2)no1`, under “Table 7, library procedure 42”, the inhibition at 1 pM amounted to 11%.
For `CC(Oc1cc(-c2ccc(C(=O)N3CCN(c4ccccn4)CC3)cc2)cnc1N)c1c(Cl)ccc(F)c1Cl` [Example L-33], the inhibition at 0.05 µM was 63%.
Take `CC(C)NC(=O)C#Cc1cnc(N)c(OC(C)c2c(Cl)ccc(F)c2Cl)c1` (stereo not shown) [Example I-440, 3-{6-Amino-5-[1-(2,6-dichloro-3-fluoro-phenyl)-ethoxy]-pyridin-3-yl}-propynoic acid isopropylamide]: the Ki under setting [1] is 0.43 µM.
Consider `Nc1ncc(-c2ccc(C(=O)N3CCC(N4CCCC4)CC3)cc2)cc1OCc1cnc(N)c(N)n1`, for which the inhibition at 1 pM (Table 7, library procedure 42) worked out at 9%.
Regarding `Nc1ncc(-c2ccc(C(=O)N3CCC(N4CCCC4)CC3)cc2)cc1OCc1ccccc1OC(F)(F)F`, the inhibition at 1 pM (Table 7, library procedure 42) is 21%.
`CC1CN(C(=O)c2ccc(-c3cnc(N)c(OCc4cccc(-c5ccnc(Br)n5)c4)c3)cc2)CC(C)N1` (stereo not shown): the inhibition at 1 µM turned out to be 19%.
With `CN(C)CCNC(=O)c1cnc(N)c(OCc2c(Cl)cccc2Cl)c1` [Example L-221], under “Table 6, library procedure 41”, the inhibition at 1 pM is 29%.
Turning to `CC(=O)N(c1ccc(C)cc1)c1nc(COc2cc(-c3ccc(C(=O)N4CCC(N5CCCC5)CC4)cc3)cnc2N)cs1`, the inhibition at 1 pM (Table 7, library procedure 42) was 9%.
On the same count and under the same terms, with `Cc1cccnc1COc1cc(-c2ccc(C(=O)N3CCC(N4CCCC4)CC3)cc2)cnc1N` the figure was 16%; with `Nc1ncc(-c2ccc(C(=O)N3CCC(N4CCCC4)CC3)cc2)cc1OCc1cc(F)cc(C(F)(F)F)c1`, 12%.
In the case of `CC(Oc1cc(-c2ccc(C(=O)NCC(C)(C)C)cc2)cnc1N)c1c(Cl)ccc(F)c1Cl` [Example L-72], the inhibition at 0.05 µM came to 62%.
With `Nc1ncc(-c2ccc(C(=O)N3CCC(N4CCCC4)CC3)cc2)cc1OCc1ccc(C(F)(F)F)c(F)c1`, the inhibition at 1 pM (Table 7, library procedure 42) is 25%.
Regarding `CCN1CCCC1CNC(=O)c1cccc(COc2cc(-c3ccc(C(=O)N4CCC(N5CCCC5)CC4)cc3)cnc2N)c1` (stereo not shown), the inhibition at 1 pM (Table 7, library procedure 42) was determined as 10%.
As for `CC(Oc1cc(-c2ccc(CN3C[C@@H](C)O[C@@H](C)C3)cc2)cnc1N)c1c(Cl)ccc(F)c1Cl` (stereo partly drawn) [Example I-571, 3-[1-(2,6-Dichloro-3-fluoro-phenyl)-ethoxy]-5-[4-((2R,6S)-2,6-dimethyl-morpholin-4-ylmethyl)-phenyl]-pyridin-2-ylamine], the Ki under setting [2] is 0.22 µM.
Regarding `CC(Oc1cc(-c2ccc(C(=O)NCCc3ccc(O)cc3)cc2)cnc1N)c1c(Cl)ccc(F)c1Cl` [Example L-61], the inhibition at 0.05 µM was 71%.
Still for that read-out and setting: with `CC(Oc1cc(-c2ccc(C(=O)NCc3cccnc3)cc2)cnc1N)c1c(Cl)ccc(F)c1Cl` [Example L-9] the figure was 64%.
Consider `Nc1ncc(-c2ccc(C(=O)N3CCC(N4CCCC4)CC3)cc2)cc1OCc1nc2ccccc2[nH]1`, for which the inhibition at 1 pM (Table 7, library procedure 42) is 4%.
On to `CC(C)(C)c1ccc(-c2noc(COc3cc(-c4ccc(C(=O)N5CCC(N6CCCC6)CC5)cc4)cnc3N)n2)cc1`, for which the inhibition at 1 pM (Table 7, library procedure 42) stood at 36%.
Still for that read-out and setting: the value for `Cc1cc(COc2cc(-c3ccc(C(=O)N4CCC(N5CCCC5)CC4)cc3)cnc2N)nc(-c2ccc(C(F)(F)F)cn2)n1` was 8%.
In the case of `CCOC(=O)N1CCC(NC(=O)c2ccc(-c3cnc(N)c(OC(C)c4c(Cl)ccc(F)c4Cl)c3)cc2)CC1` [Example L-52], the inhibition at 0.05 µM was 66%.
Consider `Nc1ncc(-c2ccc(C(=O)N3CCC(N4CCCC4)CC3)cc2)cc1OCc1nc2ncc(Cl)cc2[nH]1`, for which, where the note is “Table 7, library procedure 42”, the inhibition at 1 pM stood at 16%.
For the molecule `Nc1ncc(-c2ccc(C(=O)N3CCC(N4CCCC4)CC3)cc2)cc1OCc1ccncc1`, the inhibition at 1 pM (Table 7, library procedure 42) turned out to be 10%.
Turning to `Nc1ncc(C(=O)N2CCCCC2CCO)cc1OCc1c(Cl)cccc1Cl` [Example L-207], the inhibition at 1 pM (Table 6, library procedure 41) came out at 33%.
In the case of `CC(Oc1cc(-c2ccc(C(=O)N3CC4C(N)C4C3)cc2)cnc1N)c1c(Cl)ccc(F)c1Cl` (stereo not shown) [Example I-635, (6-Amino-3-aza-bicyclo[3.1.0]hex-3-yl)-(4-{6-amino-5-[1-(2,6-dichloro-3-fluoro-phenyl)-ethoxy]-pyridin-3-yl}-phenyl)-methanone], under setting [2], the Ki was found to be 0.0554 µM.
As for `C[C@H](Oc1cc(-c2ccc(C(=O)N3CCCC[C@@H]3CCO)cc2)cnc1N)c1c(Cl)ccc(F)c1Cl` [Example L-47], the inhibition at 0.05 µM is 83%.
On to `CN(CCC(O)c1ccccc1)C(=O)c1cnc(N)c(OCc2c(Cl)cccc2Cl)c1` [Example L-246], for which the inhibition at 1 pM (Table 6, library procedure 41) is 28%.
For the molecule `Nc1ncc(-c2ccc(C(=O)N3CCC(N4CCCC4)CC3)cc2)cc1OCc1ccc(-c2cnc(Br)nc2)cc1`, the inhibition at 1 pM (Table 7, library procedure 42) amounted to 33%.
In the case of `CC(Oc1cc(-c2ccc(C(=O)NCCc3ccccc3F)cc2)cnc1N)c1c(Cl)ccc(F)c1Cl` [Example L-35], the inhibition at 0.05 µM turned out to be 55%.
Same read-out and setting: the value for `CC(Oc1cc(-c2ccc(C(=O)NCc3ccc(CN(C)C)cc3)cc2)cnc1N)c1c(Cl)ccc(F)c1Cl` [Example L-121] was 75%.
On to `Nc1ncc(-c2ccc(C(=O)N3CCC(N4CCCC4)CC3)cc2)cc1OCc1cscn1`, for which the inhibition at 1 pM (Table 7, library procedure 42) is 12%.
With `CC1CN(C(=O)c2ccc(-c3cnc(N)c(OCc4nc(-c5ccccn5)no4)c3)cc2)CC(C)N1` (stereo not shown), the inhibition at 1 µM came to 15%.
`CC(Oc1cc(-c2ccc(C(=O)N3C[C@@H](C)O[C@@H](C)C3)cc2)cnc1N)c1c(Cl)ccc(F)c1Cl` (stereo partly drawn) [Example I-554, (4-{6-Amino-5-[1-(2,6-dichloro-3-fluoro-phenyl)-ethoxy]-pyridin-3-yl}-phenyl)-((2R,6S)-2,6-dimethyl-morpholin-4-yl)-methanone]: the Ki under setting [2] was 0.141 µM.
With `CCCCN(C)C(=O)c1ccc(-c2cnc(N)c(OC(C)c3c(Cl)ccc(F)c3Cl)c2)cc1` [Example L-115], the inhibition at 0.05 µM was determined as 63%.
On the same count and under the same terms, the value for `CC(Oc1cc(-c2ccc(C(=O)N(C)C3CCN(C)C3)cc2)cnc1N)c1c(Cl)ccc(F)c1Cl` [Example L-71] was 92%.
Regarding `Nc1ncc(-c2ccc(C(=O)N3CCC(N4CCCC4)CC3)cc2)cc1OCc1ccc(OCc2ccccc2)cc1`, the inhibition at 1 pM (Table 7, library procedure 42) is 49%.
Take `Nc1ncc(-c2ccc(C(=O)N3CCC(N4CCCC4)CC3)cc2)cc1OCc1nc2ncccc2o1`: the inhibition at 1 pM (Table 7, library procedure 42) turned out to be 17%.
On to `Nc1ncc(C(=O)NCc2ccccc2Br)cc1OCc1c(Cl)cccc1Cl` [Example L-197], for which, where the note is “Table 6, library procedure 41”, the inhibition at 1 pM came to 36%.
For `CC1CN(C(=O)c2ccc(-c3cnc(N)c(OCc4ccc(C(=O)c5ccccc5)cc4)c3)cc2)CC(C)N1` (stereo not shown), the inhibition at 1 µM came out at 35%.
Turning to `Nc1ncc(C(=O)N2CCc3nnc(CCN4CCOCC4)n3CC2)cc1OCc1c(Cl)cccc1Cl` [Example L-328], the inhibition at 1 pM (Table 6, library procedure 41) is 27%.
With `Cc1oc(-c2cccc(F)c2)nc1COc1cc(-c2ccc(C(=O)N3CCC(N4CCCC4)CC3)cc2)cnc1N`, under “Table 7, library procedure 42”, the inhibition at 1 pM came out at 8%.
Turning to `CC(Oc1cc(-c2ccc(C(=O)N3CCN(Cc4ccccc4)CC3)cc2)cnc1N)c1c(Cl)ccc(F)c1Cl` [Example L-36], the inhibition at 0.05 µM stood at 62%.
With `Cc1ccc2c(c1)C(NC(=O)c1cnc(N)c(OCc3c(Cl)cccc3Cl)c1)CCO2` [Example L-311], the inhibition at 1 pM (Table 6, library procedure 41) was 17%.
On to `Nc1ncc(-c2ccc(C(=O)N3CCC(N4CCCC4)CC3)cc2)cc1OCc1nnnn1Cc1ccccc1`, for which the inhibition at 1 pM (Table 7, library procedure 42) was found to be 19%.
Consider `CC(Oc1cc(-c2ccc(S(=O)(=O)N(C)C)cc2)cnc1N)c1c(Cl)ccc(F)c1Cl` (stereo not shown) [Example I-610, 4-{6-Amino-5-[1-(2,6-dichloro-3-fluoro-phenyl)-ethoxy]-pyridin-3-yl}-N,N-dimethyl-benzenesulfonamide], for which the Ki under setting [2] is 0.069 µM.
